The test has as its system S. mutans S125 biofilms. Kind of test: Static microtiter plate biofilm killing assay, mono-species. As to conditions: for Biofilm cells killed: 24-h-old S. mutans S125 biofilm, strains 10^7 CFU/ml, chlorhexidine 10X MIC. It is filed as cell-based, Streptococcus mutans. On the procedure: Static biofilms of S. mutons were developed on polystyrene microtiter plates by inoculating 300 μl of BHI medium with 10 μl (10^6 CFU/ml) of S. mutons S125 from an overnight culture. After 24 h of growth, the planktonic phase was carefully removed, and fresh bacteriocin-producing medium (BAC7, BAC8) containing chlorhexidine (10×MIC), BLIS M18® (10^7 CFU/ml), BLIS K12® (10^7 CFU/ml) or VAR6 (10^7 CFU/ml) was overlayed onto established biofilms and the plates were incubated for 24 h at 37° C. The upper phase was then removed, and the biofilms were washed with sterile phosphate-buffered saline (PBS, pH 7.2) and dislodged by gentle scraping using sterile pipette tips. Biofilm cells were serially diluted and plated on BHI-erythromycin agar plates. Colonies of S. mutons were counted after 48 h of incubation at 37° C. in air with 5% CO2. All assays were performed in triplicate from three independent cultures. For the fungal-bacterial assay, biofilms were developed in Yeast extract-Peptone-Glycerol (YPG) medium and using a mixture of S. mutons/Candida albicans at a ratio of 1:1. For the dental plaque assay, biofilms were developed in BHI broth and using BHI plaque suspension supplemented with S. mutons (approx. 10^5 CFU/ml).

As to `[H]/N=C(\N/C(=N/[H])NCCCCCCNC(=N)NC(=N)Nc1ccc(Cl)cc1)Nc1ccc(Cl)cc1` [chlorhexidine], the Biofilm cells killed is, setting by setting: (24 h treatment in BAC7) 91.6%±3.29; (24 h treatment in BAC8) 90.1%±2.89.

B1: SalE4: Multipeptide lantibiotic bacteriocin of VAR6 composed of Pep1, Pep2, Pep3 and Pep4 (SEQ ID NOs 5-8) (protein, listed as Streptococcus salivarius)
chain 1: MAKNTSRPEIDSLSFEVENQELSGKSGSGWFTAVQLTLAGRCGRWFTGSFECTTNNVKCG
chain 2: MRKNNNRKEIDTLDFEVKNQELSGKSGSGWFTAVQLTLAGRCGRWFTGSYECTTNNVKCG
chain 3: MKSKKVNTEIDTLEFEIDNQELNGTSGSGWWYTAFKMTLAGRCGLCFTCSYECTTNNVHC
chain 4: MKQDNFEIDSLDYEINSQELNGKSAAGWSTAVRLTVQGRCGWWFTHSYECTSPNVRCG
modifications: lantibiotic post-translational modifications
For B1, the “Killing of S. mutans and inhibition of S. mutans biofilm growth” value (BAC7 and BAC8 medium, and in situ in the mouth of an individual) was “kill S. mutans, and inhibit the growth of S. mutans biofilms”.

The values are drawn from patent publication US20230381249A1, “PROBIOTIC STRAIN FOR COUNTERING CARIES PATHOGENS” (The Governing Council of the University of Toronto, priority 2022, published 2023).
